# From article PMC6210068 (ACS Omega, 2018)
# Experiments:
# [1] = biological target: T1, KOR (Homo sapiens, UniProt P41145); assay: β-arrestin-recruitment TANGO assay at KOR; type: cell-based; conditions: 10 μM; vs naloxone 121 = 100% inhibition; agonist 109 (3 nM)
# [2] = biological target: T2, DOR (Homo sapiens, UniProt P41143); assay: Radioligand binding at DOR
# [3] = biological target: rat kidney TSPO (Rattus norvegicus, UniProt P16257); assay: Radioligand binding at TSPO; conditions: for Ki: TSPO, rat TSPO, [3H]PK11195
# [4] = biological target: T3, MOR (Homo sapiens, UniProt P35372); assay: β-arrestin-recruitment TANGO assay at MOR; type: cell-based; conditions: 10 μM; for MOR Antag (%): vs naloxone 121 = 100% inhibition, agonist 99 (300 nM); for MOR Ag (%): vs standard agonist = 100%
# [5] = biological target: T2, DOR; assay: β-arrestin-recruitment TANGO assay at DOR; type: cell-based; conditions: 10 μM; for DOR Antag (%): vs naloxone 121 = 100% inhibition; for DOR Ag (%): vs standard agonist = 100%
# [6] = biological target: hNOP (Homo sapiens, UniProt P41146); assay: Radioligand binding at NOP
# [7] = biological target: T1, KOR; assay: biochemical; type: binding; conditions: for Ki: KOR
# [8] = biological target: hDAT (Homo sapiens, UniProt Q01959); assay: Radioligand binding at DAT; conditions: for DAT, inhibition, % of control at 10 μM: [3H]WIN35428, negative = enhanced radioligand binding
# [9] = biological target: T3, MOR; assay: biochemical; type: binding; conditions: for MOR, inhibition of radioligand binding at 10 μM (class): Table 2
# [10] = biological target: T4, mA3AR (Mus musculus, UniProt Q61618); assay: Mouse A3AR binding
# T4 sequence (Q61618 1-319): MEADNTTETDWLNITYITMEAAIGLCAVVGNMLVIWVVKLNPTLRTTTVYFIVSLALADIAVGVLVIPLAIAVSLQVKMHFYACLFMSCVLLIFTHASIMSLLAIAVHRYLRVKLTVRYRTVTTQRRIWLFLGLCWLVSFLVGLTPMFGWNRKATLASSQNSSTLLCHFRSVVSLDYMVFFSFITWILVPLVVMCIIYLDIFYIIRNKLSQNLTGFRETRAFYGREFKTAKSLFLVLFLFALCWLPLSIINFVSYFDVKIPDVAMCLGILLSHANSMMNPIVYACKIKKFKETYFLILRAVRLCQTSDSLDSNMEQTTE
# [11] = biological target: T5, hA3AR (Homo sapiens, UniProt P0DMS8); assay: A3AR binding
# T5 sequence (P0DMS8 1-318): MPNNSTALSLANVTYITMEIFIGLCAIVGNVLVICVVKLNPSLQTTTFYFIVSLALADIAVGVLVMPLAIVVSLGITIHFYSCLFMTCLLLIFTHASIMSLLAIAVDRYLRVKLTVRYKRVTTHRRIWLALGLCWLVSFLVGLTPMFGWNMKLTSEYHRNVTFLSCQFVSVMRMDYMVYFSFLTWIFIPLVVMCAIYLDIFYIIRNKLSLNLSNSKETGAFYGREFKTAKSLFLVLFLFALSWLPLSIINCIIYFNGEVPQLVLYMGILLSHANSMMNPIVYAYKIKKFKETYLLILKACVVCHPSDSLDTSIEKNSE
# [12] = biological target: hA2AAR (Homo sapiens, UniProt P29274); assay: hA2AAR binding
# [13] = biological target: T6, rat σ2 receptor (Rattus norvegicus, UniProt Q5U3Y7); assay: PDSP binding, σ2 receptor
# T6 sequence (Q5U3Y7 1-176): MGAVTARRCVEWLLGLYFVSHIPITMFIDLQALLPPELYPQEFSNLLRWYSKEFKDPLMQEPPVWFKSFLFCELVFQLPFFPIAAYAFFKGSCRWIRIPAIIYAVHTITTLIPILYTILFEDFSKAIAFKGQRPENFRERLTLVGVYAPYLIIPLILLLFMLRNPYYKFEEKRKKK
# [14] = biological target: T7, hA1AR (Homo sapiens, UniProt P30542); assay: hA1AR binding; conditions: read-out: binding inhibition at hA1AR (% at 10 μM)
# T7 sequence (P30542 1-326): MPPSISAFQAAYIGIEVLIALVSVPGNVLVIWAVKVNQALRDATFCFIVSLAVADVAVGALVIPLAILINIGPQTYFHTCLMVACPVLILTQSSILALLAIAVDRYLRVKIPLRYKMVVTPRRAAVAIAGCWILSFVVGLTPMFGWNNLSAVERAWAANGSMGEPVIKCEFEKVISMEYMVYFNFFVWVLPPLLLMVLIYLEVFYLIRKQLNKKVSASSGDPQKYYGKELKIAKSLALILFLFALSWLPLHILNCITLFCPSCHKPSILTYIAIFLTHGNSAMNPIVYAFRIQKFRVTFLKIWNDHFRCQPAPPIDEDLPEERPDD
# [15] = biological target: T8, 5HT2C serotonin receptor (Homo sapiens, UniProt P28335); assay: PDSP off-target binding, 5HT2C
# T8 sequence (P28335 33-458): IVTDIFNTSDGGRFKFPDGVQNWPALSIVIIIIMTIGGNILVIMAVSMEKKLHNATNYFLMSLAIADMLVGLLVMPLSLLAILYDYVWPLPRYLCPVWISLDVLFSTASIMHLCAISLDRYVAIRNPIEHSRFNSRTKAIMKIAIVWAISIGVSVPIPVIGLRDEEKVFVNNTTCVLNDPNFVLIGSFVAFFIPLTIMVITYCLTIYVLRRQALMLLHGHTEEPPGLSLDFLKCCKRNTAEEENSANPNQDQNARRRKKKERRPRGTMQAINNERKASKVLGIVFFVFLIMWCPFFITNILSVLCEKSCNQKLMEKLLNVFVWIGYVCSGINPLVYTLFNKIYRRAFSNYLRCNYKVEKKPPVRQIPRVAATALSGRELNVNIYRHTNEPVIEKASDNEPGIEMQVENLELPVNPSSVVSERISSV
# [16] = [3H]U69593, mean ± SEM, N = 2–4
# T2 sequence (P41143 whole entry): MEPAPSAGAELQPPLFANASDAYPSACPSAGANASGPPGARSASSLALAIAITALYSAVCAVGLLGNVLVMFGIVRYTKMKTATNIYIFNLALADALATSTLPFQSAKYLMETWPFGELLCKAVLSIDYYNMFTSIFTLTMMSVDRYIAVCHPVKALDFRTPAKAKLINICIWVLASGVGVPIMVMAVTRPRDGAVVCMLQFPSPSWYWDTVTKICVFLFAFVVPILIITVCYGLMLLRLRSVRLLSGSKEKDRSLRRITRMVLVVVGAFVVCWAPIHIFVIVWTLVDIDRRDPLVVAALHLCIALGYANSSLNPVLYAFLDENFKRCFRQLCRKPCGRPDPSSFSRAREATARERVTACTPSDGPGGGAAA
# Chain of rat kidney TSPO (P16257 whole entry): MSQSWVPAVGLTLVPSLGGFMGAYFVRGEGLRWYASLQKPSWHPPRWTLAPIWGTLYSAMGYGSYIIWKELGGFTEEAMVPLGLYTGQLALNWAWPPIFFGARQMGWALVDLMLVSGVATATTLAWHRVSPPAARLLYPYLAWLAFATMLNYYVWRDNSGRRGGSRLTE
# T3 sequence (P35372 whole entry): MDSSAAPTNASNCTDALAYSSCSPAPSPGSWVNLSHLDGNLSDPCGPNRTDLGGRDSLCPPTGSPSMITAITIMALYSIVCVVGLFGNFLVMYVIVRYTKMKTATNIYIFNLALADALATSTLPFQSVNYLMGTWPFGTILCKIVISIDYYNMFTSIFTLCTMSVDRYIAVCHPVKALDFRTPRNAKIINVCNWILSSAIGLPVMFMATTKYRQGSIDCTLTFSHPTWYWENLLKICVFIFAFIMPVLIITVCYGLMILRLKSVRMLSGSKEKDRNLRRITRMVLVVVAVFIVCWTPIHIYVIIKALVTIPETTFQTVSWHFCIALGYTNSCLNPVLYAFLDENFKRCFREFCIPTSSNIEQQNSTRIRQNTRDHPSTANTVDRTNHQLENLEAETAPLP
# T1 sequence (P41145 whole entry): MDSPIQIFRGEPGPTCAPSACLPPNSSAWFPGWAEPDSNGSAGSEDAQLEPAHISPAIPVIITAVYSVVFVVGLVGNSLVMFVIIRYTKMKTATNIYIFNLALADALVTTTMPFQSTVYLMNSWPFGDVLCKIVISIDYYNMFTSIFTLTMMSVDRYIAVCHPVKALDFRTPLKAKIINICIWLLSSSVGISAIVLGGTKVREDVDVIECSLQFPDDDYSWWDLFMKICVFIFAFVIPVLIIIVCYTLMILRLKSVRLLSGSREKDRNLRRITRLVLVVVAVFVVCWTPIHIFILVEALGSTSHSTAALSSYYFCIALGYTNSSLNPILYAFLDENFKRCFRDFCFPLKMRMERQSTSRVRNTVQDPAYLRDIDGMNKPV
# Chain of hNOP (P41146 whole entry): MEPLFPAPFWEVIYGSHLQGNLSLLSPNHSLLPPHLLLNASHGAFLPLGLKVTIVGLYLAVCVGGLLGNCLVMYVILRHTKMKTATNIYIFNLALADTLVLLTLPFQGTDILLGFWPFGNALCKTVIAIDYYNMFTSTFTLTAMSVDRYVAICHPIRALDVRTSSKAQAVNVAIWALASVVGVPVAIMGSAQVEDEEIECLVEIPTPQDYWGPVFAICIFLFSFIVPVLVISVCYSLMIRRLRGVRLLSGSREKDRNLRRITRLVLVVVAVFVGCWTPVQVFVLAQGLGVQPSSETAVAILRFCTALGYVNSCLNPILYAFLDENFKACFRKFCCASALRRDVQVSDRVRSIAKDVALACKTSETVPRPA
# Chain of hDAT (Q01959 whole entry): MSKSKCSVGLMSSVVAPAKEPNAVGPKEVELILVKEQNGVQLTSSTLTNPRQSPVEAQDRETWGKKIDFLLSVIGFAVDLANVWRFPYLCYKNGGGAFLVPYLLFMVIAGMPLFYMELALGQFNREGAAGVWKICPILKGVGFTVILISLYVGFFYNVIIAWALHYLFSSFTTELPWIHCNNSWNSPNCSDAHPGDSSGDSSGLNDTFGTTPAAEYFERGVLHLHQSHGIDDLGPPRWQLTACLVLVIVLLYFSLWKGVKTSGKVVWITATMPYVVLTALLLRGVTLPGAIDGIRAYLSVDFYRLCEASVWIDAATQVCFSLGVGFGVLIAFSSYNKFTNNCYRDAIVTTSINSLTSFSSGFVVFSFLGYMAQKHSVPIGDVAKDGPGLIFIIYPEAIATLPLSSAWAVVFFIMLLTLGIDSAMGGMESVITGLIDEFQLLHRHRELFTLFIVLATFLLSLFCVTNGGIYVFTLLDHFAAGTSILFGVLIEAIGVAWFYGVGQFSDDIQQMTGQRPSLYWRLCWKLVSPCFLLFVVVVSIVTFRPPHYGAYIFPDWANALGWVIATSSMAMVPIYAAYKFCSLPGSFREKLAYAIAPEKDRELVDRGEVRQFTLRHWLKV
# Chain of hA2AAR (P29274 whole entry): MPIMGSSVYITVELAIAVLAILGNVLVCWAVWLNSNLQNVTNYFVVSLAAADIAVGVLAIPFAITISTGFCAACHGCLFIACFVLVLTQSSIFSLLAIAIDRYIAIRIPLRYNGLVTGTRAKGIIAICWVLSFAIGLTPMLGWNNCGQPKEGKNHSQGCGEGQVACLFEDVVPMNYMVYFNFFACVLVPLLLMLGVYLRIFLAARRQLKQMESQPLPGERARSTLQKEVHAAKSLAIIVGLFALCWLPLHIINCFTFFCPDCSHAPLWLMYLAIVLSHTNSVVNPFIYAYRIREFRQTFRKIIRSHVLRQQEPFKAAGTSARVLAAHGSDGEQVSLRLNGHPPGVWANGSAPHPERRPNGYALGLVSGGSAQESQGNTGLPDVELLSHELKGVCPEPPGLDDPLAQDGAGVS
SMILES,KOR Antag (%) [1],Ki [3],MOR Antag (%) [4],MOR Ag (%) [4],DOR Antag (%) [5],DOR Ag (%) [5],Ki [6],"Ki [7, 16]","DAT, inhibition, % of control at 10 μM [8]","DOR, inhibition of radioligand binding at 10 μM (class) ([2]; Table 1)",Ki [10],Ki [2],Ki [11],also measured
CCOC(=O)[C@@]12C[C@@H]1[C@@H](n1cnc3c(NC)nc(C#Cc4ccc(Br)s4)nc31)[C@H](O)[C@@H]2O [compound 25],88.1%,1520 ± 250 nM,22.6%,–1.2%,–6.0%,–1.7%,> 10000 nM,975 ± 198 nM,–430%,–,–,–,–,"DOR, inhibition of radioligand binding at 10 μM (class) ([2]; Table 2): ^c (30–50% inhibition of radioligand binding at 10 μM); MOR, inhibition of radioligand binding at 10 μM (class) [9]: ^c (30–50% inhibition of radioligand binding at 10 μM)"
CNC(=O)[C@@]12C[C@@H]1[C@@H](n1cnc3c(NC)nc(C#Cc4ccccc4Cl)nc31)[C@H](O)[C@@H]2O [compound 13],–,–,–,–,–,–,–,–,–484%,^e (30–50% inhibition of radioligand binding at 10 μM),110 nM,–,–,"TSPO, inhibition of radioligand binding at 10 μM (class) ([3]; Table 1, 10 μM): ^e (30–50% inhibition of radioligand binding at 10 μM)"
CNC(=O)[C@@]12C[C@@H]1[C@@H](n1cnc3c(NCc4cccc(Cl)c4)nc(C#Cc4ccc(F)c(F)c4)nc31)[C@H](O)[C@@H]2O [compound 4],125%,~300 nM,18.8%,–1.6%,25.3%,–10.3%,4560 ± 450 nM,–,16%,–,–,2480 ± 790 nM,–,–
"CCOC(=O)[C@@]12C[C@@H]1[C@@H](n1ccc3c(NC)nc(C#Cc4ccc(Br)s4)nc31)[C@H](O)[C@@H]2O [compound 29, Ethyl(1S,2R,3S,4R,5S)-4-(2-((5-bromothiophen-2-yl)ethynyl)-4-(methylamino)-7H-pyrrolo[2,3-d]pyrimidin-7-yl)-2,3-dihydroxybicyclo[3.1.0]hexane-1-carboxylate]",104.5%,765 ± 118 nM,96.9%,1.6%,93.2%,–1.1%,2760 ± 670 nM,39 ± 1 nM,–102 ± 8 (3) %,–,–,437 ± 94 nM,466 ± 20 nM,preference for KOR in comparison to DOR ([7]; ratio of Ki): 11 fold; preference for KOR in comparison to MOR ([7]; ratio of Ki): 9 fold; preference for KOR in comparison to TSPO ([7]; ratio of Ki): ~20 fold; EC50 [8]: > 1000 nM; Ki [9]: 368 ± 135 nM
CNC(=O)[C@@]12C[C@@H]1[C@@H](n1cnc3c(NCCCO)nc(C#Cc4ccc(Cl)s4)nc31)[C@H](O)[C@@H]2O [compound 20],–,6160 ± 50 nM,–,–,–,–,–,–,–107 ± 4%,^e (30–50% inhibition of radioligand binding at 10 μM),105 nM,–,2.04 ± 1.46 nM,–
CNc1nc(C#Cc2ccc(Cl)s2)nc2c1ncn2[C@H]1[C@H](O)[C@H](O)[C@]2(C(=O)OCc3ccccc3)C[C@H]12 [compound 35],112.9%,4050 ± 740 nM,82.1%,3.1%,14.1%,–1.9%,–,629 ± 183 nM,<20%,–,891 nM,–,7.81 ± 2.4 nM,"DOR, inhibition of radioligand binding at 10 μM (class) ([2]; Table 2): ^d (<30% inhibition of radioligand binding at 10 μM); MOR, inhibition of radioligand binding at 10 μM (class) [9]: ^c (30–50% inhibition of radioligand binding at 10 μM)"
O[C@@H]1[C@H](O)[C@@H]2C[C@@H]2[C@H]1n1cnc2c(NCc3cccc(Cl)c3)nc(C#Cc3ccccc3)nc21 [compound 47],–,1640 ± 160 nM,–,–,–,–,> 10000 nM,–,37%,–,299 nM,8000 ± 1000 nM,–,Ki [12]: 670 nM; Ki [13]: 2730 nM
CCCCC(=O)[C@@]12C[C@@H]1[C@@H](n1ccc3c(NC)nc(C#Cc4ccc(Cl)s4)nc31)[C@H](O)[C@@H]2O [compound 44],65.5%,–,–44.4%,6.0%,20.3%,6.7%,> 10000 nM,2610 ± 660 nM,–9%,–,–,–,98 ± 30 nM,–
CNC(=O)[C@@]12C[C@@H]1[C@@H](n1cnc3c(NCCC(F)(F)F)nc(C#Cc4ccc(Cl)s4)nc31)[C@H](O)[C@@H]2O [compound 19],–,1300 ± 150 nM,–,–,–,–,–,–,15%,^e (30–50% inhibition of radioligand binding at 10 μM),71 nM,–,3.7 ± 1 nM,inhibition at 10 µM ([12]; read-out: binding inhibition at hA2AAR (% at 10 μM)): 21%; inhibition at 10 µM [14]: 46%
CNc1nc(C#Cc2ccc(Cl)s2)nc2c1ncn2[C@H]1[C@H](O)[C@H](O)[C@]2(C(=O)NCCN)C[C@H]12 [compound 21],–,> 10000 nM,–,–,–,–,–,–,–136%,^f (<30% inhibition of radioligand binding at 10 μM),–,–,158 ± 8 nM,Ki [7]: 2790 nM; Ki [15]: 510 nM
